Patent publication US20120010173A1 (SEPS PHARMA N.V., priority 2009, published 2012)
≈ marks a conversion by molar mass, not a printed value. Read-outs that look alike come from different tables or passages of the source.

Legend:
Type in all cases: physicochemical
[1] = Solubility in pharmaceutical solvents (Table 3); details: read-out: solubility
From the text: The values within brackets in Table 3 correspond to the calculated fluconazole concentrations taking into account the molecular weights of the relevant fosfluconazole prodrug and fluconazole itself.

[2] = Solubility of fosfluconazole derivatives in pharmaceutical solvents (Table 2); details: thermodynamic from solid
Description: The solubility determination method used was as follows: a suspension of 6 mg of the tested fosfluconazole derivative in 500 μl of the applicable pharmaceutical solvent was rotatively shaken for 24 hours at 800 rpm at 25° C. The saturated fosfluconazole derivative solution was filtered (0.45 μm) and 150 μl of the filtrate was diluted in dimethylsulfoxide (50 μl DMSO). This solution was assayed, each assay being carried out in three-fold, by measurement with Liquid Chromatography-Mass Spectrometry (LCMS, 1 μl and 10 μl injection). Standards were prepared by dissolving the corresponding fosfluconazole derivative in DMSO (1 mg/ml). To determine the solubility, four aliquots (0.5, 1, 2, 4 μl) of the standard solution were injected using the same LCMS conditions as for the above exemplary samples.

[3] = Chemical stability in pharmaceutical solvents (weight % remaining in solution, LCMS)
Description: Table 4 provides the chemical stability data in some pharmaceutical solvents, expressed as the weight percentage (% w/w) of the final fosfluconazole derivative produced and characterized in example 1 that remained in solution after a certain period of time. The test was carried out twice, and the remaining weight % was determined by Liquid Chromatography-Mass Spectrometry (LCMS).
Table 5 provides the chemical stability data in some pharmaceutical solvents at 25° C., expressed as the weight percentage (% w/w) of the final fosfluconazole derivative produced and characterized in example 2 that remained in solution after a certain period of time. The test was carried out twice, and the remaining weight % was determined by Liquid Chromatography-Mass Spectrometry (LCMS).
Table 6 provides the chemical stability data in some pharmaceutical solvents at 25° C., expressed as the weight percentage (% w/w) of the final fosfluconazole derivative produced and characterized in example 3 that remained in solution after a certain period of time. The test was carried out twice, and the remaining weight % was determined by Liquid Chromatography-Mass Spectrometry (LCMS).
Table 7 provides the chemical stability data in some pharmaceutical solvents, expressed as the weight percentage (% w/w) of the final fosfluconazole derivative produced and characterized in example 4 that remained in solution after a certain period of time. The test was carried out twice, and the remaining weight % was determined by Liquid Chromatography-Mass Spectrometry (LCMS).
Table 8 provides the chemical stability data in some pharmaceutical solvents, expressed as the weight percentage (% w/w) of the final fosfluconazole derivative produced and characterized in example 5 that remained in solution after a certain period of time. The test was carried out twice, and the remaining weight % was determined by Liquid Chromatography-Mass Spectrometry (LCMS).
Table 9 provides the chemical stability data in some pharmaceutical solvents, expressed as the weight percentage (% w/w) of the final fosfluconazole derivative produced and characterized in example 6 that remained in solution after a certain period of time. The test was carried out twice, and the remaining weight % was determined by Liquid Chromatography-Mass Spectrometry (LCMS).
Table 10 provides the chemical stability data in some pharmaceutical solvents, expressed as the weight percentage (% w/w) of the final fosfluconazole derivative produced and characterized in example 14 that remained in solution after a certain period of time. The test was carried out twice, and the remaining weight % was determined by Liquid Chromatography-Mass Spectrometry (LCMS).

[4] = aqueous with cosolvent or surfactant or cyclodextrin, H2O/Cremophor RH 40 (80/20), 25° C.
[5] = aqueous with cosolvent or surfactant or cyclodextrin, H2O/Kleptose HPB (60/40), 25° C.
[6] = aqueous with cosolvent or surfactant or cyclodextrin, H2O/Vitamin E TPGS (90/10), 25° C.
[7] = aqueous with cosolvent or surfactant or cyclodextrin, H2O/polysorbate 80 (80/20), 25° C.
[8] = oil or lipid, Miglyol 812, 25° C.
[9] = organic solvent or mixture, PEG 400, 25° C.
[10] = water (pH 2), aqueous buffer, H2O (pH = 2), 25° C.
[11] = water (pH 7), aqueous buffer, H2O (pH = 7), 25° C.
[12] = water (pH 10), aqueous buffer, H2O (pH = 10), 25° C.

CCOP(=O)(O[C@H]1CC[C@@]2(C)C(=CC[C@H]3[C@@H]4CC[C@H]([C@H](C)CCCC(C)C)[C@@]4(C)CC[C@@H]32)C1)OC(Cn1cncn1)(Cn1cncn1)c1ccc(F)cc1F (stereo partly shown) [Example 5] gave a solubility ([1]; Benzylalcohol, organic solvent or mixture) of no less than 227000 µg/mL, a solubility ([1]; Benzylbenzoate, organic solvent or mixture) of 90000 µg/mL (≈ 115 mM) and a solubility ([1]; Ethylbenzoate, organic solvent or mixture) of 133000 µg/mL (≈ 170 mM). It also gave a solubility ([1]; Miglyol 812, oil or lipid) of 12000 µg/mL (≈ 15.3 mM), a solubility ([1]; N-methylpyrrolidone, organic solvent or mixture) of no less than 227000 µg/mL and a solubility ([1]; Sesame oil (LCT), oil or lipid) of 10000 µg/mL (≈ 12.8 mM). For the same compound, the solubility at 24 h [2, 4] was 900 µg/mL (≈ 1.15 mM), the solubility at 24 h [2, 5] was 500 µg/mL (≈ 0.639 mM) and the solubility at 24 h [2, 6] was 1400 µg/mL (≈ 1.79 mM). It also gave a solubility at 24 h [2, 7] of 4500 µg/mL (≈ 5.75 mM), a solubility at 24 h [2, 8] of 9700 µg/mL (≈ 12.4 mM) and a solubility at 24 h [2, 9] of 4100 µg/mL (≈ 5.24 mM). The solubility at 24 h [2, 10] was less than 1 µg/mL, the solubility at 24 h [2, 11] was less than 1 µg/mL and the solubility at 24 h [2, 12] was less than 1 µg/mL.
For C[N+](C)(C)CCOP(=O)([O-])OC(Cn1cncn1)(Cn1cncn1)c1ccc(F)cc1F [Example 1, 2-(2,4-difluorophenyl)-1,3-di(1H-1,2,4-triazol-1-yl)propan-2-yl 2-(trimethylammonio)-ethyl phosphate], the “weight percentage that remained in solution” value ([3]; H2O (pH = 2), 4 hours) was 99.9 % w/w, the “weight percentage that remained in solution” value ([3]; H2O (pH = 2), 1 day) was 100.0 % w/w and the “weight percentage that remained in solution” value ([3]; H2O (pH = 2), 2 days) was 99.4 % w/w. For the same compound, the “weight percentage that remained in solution” value ([3]; H2O (pH = 2), 7 days) was 99.4 % w/w, the “weight percentage that remained in solution” value ([3]; H2O (pH = 2), 14 days) was 99.2 % w/w and the “weight percentage that remained in solution” value ([3]; H2O (pH = 7), 4 hours) was 99.6 % w/w. For the same compound, the “weight percentage that remained in solution” value ([3]; H2O (pH = 7), 1 day) was 99.6 % w/w, the “weight percentage that remained in solution” value ([3]; H2O (pH = 7), 2 days) was 54.7 % w/w and the “weight percentage that remained in solution” value ([3]; H2O (pH = 7), 7 days) was 99.6 % w/w. The “weight percentage that remained in solution” value ([3]; H2O (pH = 7), 14 days) was 99.6 % w/w, the “weight percentage that remained in solution” value ([3]; H2O (pH = 10), 4 hours) was 99.8 % w/w and the “weight percentage that remained in solution” value ([3]; H2O (pH = 10), 1 day) was 100.0 % w/w. For the same compound, the “weight percentage that remained in solution” value ([3]; H2O (pH = 10), 2 days) was 99.7 % w/w, the “weight percentage that remained in solution” value ([3]; H2O (pH = 10), 7 days) was 100.0 % w/w and the “weight percentage that remained in solution” value ([3]; H2O (pH = 10), 14 days) was 100.0 % w/w. For the same compound, the “weight percentage that remained in solution” value ([3]; H2O/Kleptose HPB (60/40), 4 hours) was 99.3 % w/w, the “weight percentage that remained in solution” value ([3]; H2O/Kleptose HPB (60/40), 1 day) was 98.8 % w/w and the “weight percentage that remained in solution” value ([3]; H2O/Kleptose HPB (60/40), 2 days) was 98.8 % w/w. For the same compound, the “weight percentage that remained in solution” value ([3]; H2O/Kleptose HPB (60/40), 7 days) was 98.6 % w/w, the “weight percentage that remained in solution” value ([3]; H2O/Kleptose HPB (60/40), 14 days) was 99.1 % w/w and the “weight percentage that remained in solution” value ([3]; PEG 400, 4 hours) was 99.8 % w/w. For the same compound, the “weight percentage that remained in solution” value ([3]; PEG 400, 1 day) was 100.0 % w/w, the “weight percentage that remained in solution” value ([3]; PEG 400, 2 days) was 99.8 % w/w and the “weight percentage that remained in solution” value ([3]; PEG 400, 7 days) was 99.9 % w/w. The “weight percentage that remained in solution” value ([3]; PEG 400, 14 days) was 100.0 % w/w, the solubility at 24 h [2, 4] was greater than 10000 µg/mL and the solubility at 24 h [2, 5] was 4200 µg/mL. The solubility at 24 h [2, 6] was 7400 µg/mL, the solubility at 24 h [2, 7] was 8300 µg/mL and the solubility at 24 h [2, 8] was 400 µg/mL. For the same compound, the solubility at 24 h [2, 9] was greater than 10000 µg/mL, the solubility at 24 h [2, 10] was greater than 10000 µg/mL and the solubility at 24 h [2, 11] was 6800 µg/mL. For the same compound, the solubility at 24 h [2, 12] was 7500 µg/mL.
